Data set [1] has as its system FMCD and epilepsy animal models (mTOR-p.C1483Y, mTOR-p.L2427P). Nature of the data set: Light & dark box test, FMCD epilepsy models. As to conditions: ASO-eIF4E models compared to ASO-control models. It is filed as in vivo, mouse. Here is the method: (§1) Behaviors were recorded and analyzed using EthoVision XT (Noldus).
(§2) Experiments were performed on the FMCD and epilepsy animal models (mTOR-p.C1483Y, mTOR-p.L2427P) of Example 7-1 and the control normal animal models (mTOR-WT). The same sheIF4E as that described in Example 2 was used. Week 2 after sheIF4E injection, the handling was performed in the animals. Week 3 after sheIF4E injection, the animals were subjected to the behavioral tests.
(§3) The epilepsy animal models were subjected to the substantially same behavioral abnormality assay as in Example 6. The results are depicted in FIGS. 28 and 29.
(§4) Briefly, ASO #77 was administered by ICV injection to the FMCD and epilepsy animal models were generated with the pCIG-mTOR mutant-IRES-EGFP of Example 1. ASO #77 was evaluated for therapeutic potential for neuropsychiatric disorder accompanying the FMCD epilepsy animal models in the substantially same manner as in Example 6.

Another data set relates to eIF4E mRNA. Nature of the data set: ASO screening by real-time PCR (eIF4E mRNA, HEK293T). It counts as cell-based, human. As to conditions: relative to ASO #75. Here is the method: In an alternative approach for screening the designed ASO candidates, the human cell line HEK293T cells (human) were cultured on 96-well culture plates for 24 hours and then transfected with ASO candidates with the aid of iN-fect™ transfection reagent (INTRON, 15081). Twenty four hours after transfection, the cells were harvested and subjected to lysis and RNA extraction using SuperPrep™ II Cell Lysis & RT Kit reagent (Toyobo, SCQ-401). From the RNA thus obtained, cDNA was synthesized by reverse transcription PCR. Real-time PCR was performed in CXF384 Touch™ Real-Time System (Bio-Rad) with SYBR® green real-time PCR master mix (Toyobo, QPK-201). Forward and reverse PCR primer sequences for eIF4E and GAPDH are as follows:
The real-time PCR conditions in the CXF384_Touch™ Real-Time System were as follows: 95° C. for 1 min, then 95° C. for 15 sec, 59.5° C. for 20 sec, and 72° C. for 30 sec for 39 cycles. Each sample was analyzed in triplicates. […] FIGS. 16b and 16c are graphs in which relative eIF4E expression levels are quantitatively expressed as ratios compared to the GAPDH expression level in HEK293T cells treated with ASO candidates.

Data set [2] has as its system C57BL/6J mice. As to conditions: mouse, in vivo.
For data set [3], the system named is FMCD and epilepsy animal models (mTOR-p.C1483Y, mTOR-p.L2427P). Nature of the data set: 3-Chamber test (social interaction), FMCD epilepsy models. It counts as in vivo, mouse. As to conditions: ASO-eIF4E models compared to ASO-control models. The method, then: The 3-Chamber test measures social interaction and preference for social novelty. This apparatus consisted of three chambers with dimensions of 12×20×26 cm for the center chamber and dimensions of 14×20×26 cm for the opposite side chambers. Each of the opposite side chambers included a plastic cage (11 cm in diameter, 2.15 cm in height) for an object or stranger mouse in a corner. This experiment consisted of three sessions of habituation (10 min), exploring object/mouse (10 min), and exploring familiar/new mouse (10 min). In the second session, a WT stranger mouse was randomly placed in a plastic cage while the opposite plastic cage was empty. The mouse was allowed to freely explore the whole apparatus. The time spent in each chamber was measured and then used for the subsequent social interaction test. In the last session, a new WT stranger was placed in the empty plastic cage.
Experiments were performed on the FMCD and epilepsy animal models (mTOR-p.C1483Y, mTOR-p.L2427P) of Example 7-1 and the control normal animal models (mTOR-WT). […]
as §4

Data set [4] shares this test system. It counts as in vivo, mouse. The method, then: as §1, §2, §3, §4
The test system of another data set is male mice. Nature of the data set: Repeated dose toxicity assay by subcutaneous injection. It is filed as in vivo, mouse. As to conditions: subcutaneous 100 mg/kg, seven times within a month. Here is the method:
ASO #16, #21, #27, #35, #75, #77, and #89 selected in Example 4 were each assayed for repeated dose toxicity by subcutaneous injection.
Repeated dose toxicity assay of the […] was conducted by Biotoxtech Co., Ltd. In repeated dose toxicity assay, each ASO sequence was subcutaneously injected at a dose of 100 mg/kg to groups of four male mice seven times in total within a month (days 1, 3, 5, 7, 14, 21, and 28). Two days after the last injection, histopathologic observations were made.

Data set [5] concerns C57BL/6J mice. As to conditions: in vivo.
Data set [6] has as its system FMCD and epilepsy animal models (mTOR-p.C1483Y, mTOR-p.L2427P). Nature of the data set: Sucrose preference test, FMCD epilepsy models. As to conditions: ASO-eIF4E models compared to ASO-control models. It counts as in vivo, mouse. The method, then:
Each of mice was habituated for 3-5 days in a cage with two selectable water bottles presented. Thereafter, the mice were each placed in the same cage as the habituation cage at the day of experiment. The mice were presented with two dual bottles, one containing tap water and the other containing 1% sucrose solution. Water and sucrose solution intake was measured after 24 hours and sucrose preference was calculated according to volume of sucrose intake/total volume of fluid intake×100%.
The same sheIF4E as that described in Example 2 was used. Week 2 after sheIF4E injection, the handling was performed in the animals. Week 3 after sheIF4E injection, the animals were subjected to the behavioral tests.
The epilepsy animal models were subjected to the substantially same behavioral abnormality assay as in Example 6.
as §4

Data set [7] shares this test system. Nature of the data set: Social avoidance test, FMCD epilepsy models. It is filed as in vivo, mouse. As to conditions: ASO-eIF4E models compared to ASO-control models. Here is the method: The arena was a black box (400×400 mm).
as §2, §3, §4

Consider “ASO #77: eIF4E-targeting antisense oligonucleotide of SEQ ID NO: 77, 2′-MOE gapmer, all phosphorothioate linkages (antisense GATCCTTCACCAATGTTACA; all phosphorothioate, sugars by position and methylation of C not given here; 2'-MOE gapmer)”, for which the “time spent in center (residence time within the light box)” value in [1] was “increased”. Moreover, the “Expression level of eIF4E(%) compared to ASO#75” value in the data set with eIF4E mRNA was 121%. For the same substance, the “number of buried marbles (index of repetitive behavior)” value in the data set on C57BL/6J mice [2] is listed as “not changed”. For the same substance, the “time spent in sniffing zone (social ability)” value in data set [3] was “increased”. Also, the “time spent in center (index of anxiety)” value in data set [4] (ASO-eIF4E models compared to ASO-control models) was “increased”. For the same substance, the “dyskinesia (behavior test)” value in data set [4] (mouse, in vivo) is on record as “no dyskinesia”. In addition, the “dead or moribund animals” value in the data set on male mice is given as “No dead or moribund animals”. Also, in the data set on C57BL/6J mice [5], the “time spent to interact with the stranger mouse (index of sociality and depression)” value was “not changed”. Moreover, in [6], the “% sucrose preference” value was “increased”. For the same substance, the “time spent to interact with the stranger mouse (social ability and depression)” value in [7] was “increased”.

The values are drawn from patent US12570975B2, “Composition for diagnosis or treatment of a condition associated with increased activity of EIF4E comprising an EIF4E inhibitor” (SoVarGen Co., Ltd., priority 2019, dated 2026).
